From patent US20090209457A1, “TREATMENT OF ANTI-ERYTHROPOIETIN ANTIBODY-MEDIATED DISORDERS WITH SYNTHETIC PEPTIDE-BASED EPO RECEPTOR AGONISTS” (Affymax, Inc., priority 2008, published 2009)
“Also recorded” adds a separate entry of the source. Bridge positions count the residues as written; N and C are the ends. Square brackets hold non-standard residues; d marks the D form. Ends that are not written are not given here. 1Nal = N[C@@H](Cc1cccc2ccccc12)C(=O)O; Sar = CNCC(=O)O

How the values were obtained:
rat model of PRCA = assay: Rat model of PRCA (anti-EPO antibody-induced anemia); format: in vivo
Experimental: The efficacy of Peptide I to correct anemia due to recombinant EPO anti-body induced PRCA was assessed in a rat model of PRCA. […] The rat model of PRCA consisted of induction of anti-EPO antibodies in a rat to yield a model of PRCA. Subsequent to inducing PRCA in rats, the erythropoietic activity of Peptide I, compared to rats treated with recombinant EPO, was evaluated in the rat model of PRCA following weekly administrations of Peptide I or recombinant EPO.
Additionally, administration of Peptide I to rats positive for anti-EPO antibodies allowed evaluation of Peptide I to correct PRCA-induced anemia.
Experiments were also conducted in anemic anti-EPO antibody positive rats to determine if normal hemoglobin levels could be maintained. The anemic anti-EPO antibody positive rats were treated with Peptide I approximately every 4 weeks for a total of additional seven injections. Hemoglobin levels in the Peptide I and vehicle-treated antibody-positive rats were compared to concurrent controls.
EPO-induced PRCA in humans and rats characterized by severe anemia associated with the presence of anti-EPO antibodies, an absence of reticulocytes, and limited bone marrow erythroid precursors with concomitant presence of normal numbers of granulocytic and megakaryocytic lineages. Peptide I corrected the EPO-induced anemia in these animals.

[1] = system: patients with anti-EPO antibody-mediated PRCA; assay: Open-label clinical study in patients with anti-EPO antibody-mediated PRCA; format: in vivo, human
Experimental: An open-label, prospective, non-randomized study was conducted to investigate the ability of Peptide I to correct anemia in patients with PRCA that is characterized by anti-EPO antibodies. The pre-specified primary objective was to determine if Peptide I could increase and maintain hemoglobin levels above 11 g/dL (consistent with both U.S.[KDOQI Clinical Practice Guidelines and Clinical Practice Recommendations for Anemia in Chronic Kidney Disease (2006) Am. J. Kidney Dis. 47 (Suppl 3):S11-S145.] and European Guidelines [Locatelli F, et al. (2004) Nephrol. Dial. Transplant 19 (Suppl 2): ii1-47.]) without the need for red cell transfusions in patients with anti-EPO antibody-mediated PRCA during 6 months of treatment. The effect of Peptide I on reducing red cell transfusions, the time required to correct anemia in the absence of transfusions, dose requirements, and safety were also assessed.
Patients older than 18 years of age were eligible for inclusion if they had CKD (with or without the need for dialysis) and PRCA or red cell hypoplasia due to anti-EPO antibodies. Patients were required to have a documented history of: (1) a decrease in hemoglobin concentration while receiving a stable or increased dose of a protein-based ESA, or red cell transfusion dependency; (2) reticulocyte counts of <30×10^9/L; (3) a bone marrow examination showing severe erythroid hypoplasia or aplasia; and (4) a confirmed positive test for anti-EPO antibodies. Patients may have received immunosuppressive therapy previously, but these medications were to be discontinued for at least three months prior to enrollment. At the time of enrollment, patients had to either be transfusion-dependent, or have a hemoglobin concentration persistently below 11 g/dL without ESA therapy. The presence of another hematological disorder, another known cause of PRCA, and current treatment with ESA or immunosuppressive therapy represented the major exclusion criteria.
Blood samples were taken for baseline measurement of the complete blood count, reticulocyte count, urea, electrolytes, liver function tests, iron status, anti-EPO antibodies, and anti-Peptide I antibodies. Upon meeting study eligibility criteria, treatment with Peptide I was initiated at a dose of 0.05 mg/kg by SC injection Q4W. Hemoglobin and reticulocyte counts were performed weekly, while samples were taken monthly for other safety laboratory parameters including urea, electrolytes, liver function tests and anti-EPO and anti-Peptide I antibodies. The frequency and dose of each injection was adjusted based on the patient's hemoglobin response to achieve a hemoglobin level in the target range of 11-13 g/dL. This target was subsequently changed to 11-12 g/dL in early 2007 following publication of the CREATE [Drueke T B, et al. (2006) N. Engl. J. Med. 355: 2071-84] and CHOIR [Singh A K, et al. (2006) N. Engl. J. Med 355: 2085-98] studies, in line with subsequent KDOQI recommendations [KDOQI Clinical Practice Guideline and Clinical Practice Recommendations for Anemia in Chronic Kidney Disease (2007) Am. J. Kidney Disease 50: 471-530].
The study was designed to enroll 5-20 patients with anti-EPO antibody mediated PRCA based on the Investigators' estimate of the maximum number of potentially eligible patients with access to the study centers. Patients were to be treated for an initial 6-month period. […] All patients who received at least one dose of Peptide I were included in the safety analysis, and those with at least one hemoglobin value following dosing were included in the efficacy analyses. All safety and efficacy results were summarized using descriptive statistics and data are presented as medians, 25th and 75th percentiles, and ranges.

Substance: PEGylated homodimer of peptide monomers (AcG)GLYACHMGPIT(1-nal)VCQPLR(MeG)K (SEQ ID NO: 2), EPO-R agonist (Ac-GGLYACHMGPIT[1Nal]VCQPLR[Sar]K; disulfide 6-15 (inferred); not fully specified (residue 21); printed as (AcG)GLYACHMGPIT(1-nal)VCQPLR(MeG)K; also: PEGylated) [Peptide I]
- maintenance of hemoglobin levels (rat model of PRCA; anemic anti-EPO antibody-positive rats, repeat administrations every 4 weeks): sustained correction of hemoglobin levels
- reticulocytosis (rat model of PRCA; anti-EPO antibody-positive anemic rats, compared to recombinant EPO treated rats): significantly increased
- hemoglobin levels (rat model of PRCA; anti-EPO positive animals versus antibody-negative control rats): greater than hemoglobin levels achieved in the anti-EPO antibody-negative control rats
- correction of antibody-induced anemia (rat model of PRCA; rat model of PRCA): corrected antibody-induced anemia; also recorded: reversed
- patients with hemoglobin response (above 11 g/dL without transfusion) ([1]; 10 patients, median follow up 13.5 months, SC Q4W): 10 patients
- tolerability ([1]; SC injections): generally well-tolerated
- patients receiving red blood cell transfusions ([1]; as of month 4): one
- median ferritin levels ([1]; at data cut-off, baseline 1,356 μg/L): 1,243 μg/L
- median TSAT ([1]; at data cut-off, baseline 70.9%): 50.0%
- patients receiving red blood cell transfusions ([1]; at month 6): no patient
- median hemoglobin ([1]; by 6 months, baseline 9.7 g/dL): 11.6 g/dL
- patients receiving red blood cell transfusions ([1]; during month 7 (prior to kidney transplant surgery)): one
- patients receiving red blood cell transfusions ([1]; during the first month): 3 patients
- patients receiving red blood cell transfusions ([1]; from month 8 onwards): no patient
- median time to hemoglobin response ([1]; human, in vivo): 10 weeks
- serious adverse events related to study drug ([1]; human, in vivo): none of these events was considered related to study drug; also recorded: no reports of serious adverse events related to Peptide I
- serious adverse events ([1]; in 2 patients): Four
- adverse events reported ([1]; in 10 patients): 108 events
- adverse events at least possibly related to Peptide I ([1]; of 108 events): 4 events
- adverse events mild or moderate in severity ([1]; of 108 events): 97 events
